Series [1] relates to Candida albicans (NCYC1467). It counts as cell-based. The procedure:
(§1) The antimicrobial assay was carried out to detect the minimum inhibitory concentration (MIC) and the minimum bactericidal concentration (MBC) of each peptide on the microbes as described previously. Seven different microorganisms were used in the assay: Gram-positive bacteria Staphylococcus aureus (NCTC10788), Enterococcus faecalis (NCTC12697), and methicillin-resistant S. aureus (MRSA) (NCTC12493); Gram-negative bacteria Escherichia coli (NCTC10418), Pseudomonas aeruginosa (ATCC27853), and Klebsiella pneumoniae (ATCC 43816); and fungi Candida albicans (NCYC1467). Bacterial strains were inoculated and grown to mid-log phase in fresh Mueller Hinton broth (MHB) at 37 °C for overnight, then bacteria inoculum suspensions were subcultured until reaching the logarithmic growth phase by measuring OD of the cultures at wavelength 550 nm. Then, 99 µL bacteria and 1 µL peptide solution were mixed in the 96-wells microplate. For positive and negative controls, the bacteria were incubated with antibiotics (Norfloxacin for Gram-positive bacteria and Gram-negative bacteria; Amphotericin B for fungi) solution and MHB medium, respectively. Experiments were repeated five times in five replicates.

For series [2], the system named is Enterococcus faecalis (NCTC12697). It counts as cell-based. The procedure: as §1
In series [3] the test system is Pseudomonas aeruginosa (ATCC27853). It counts as cell-based. The procedure:
as §1

For series [4], the system named is Escherichia coli (NCTC10418). It counts as cell-based. The procedure: as §1
Series [5] deals with Klebsiella pneumoniae (ATCC 43816). It counts as cell-based. The procedure:
as §1

Series [6] has as its system Staphylococcus aureus (NCTC10788). It counts as cell-based. The procedure: as §1
In series [7] the test system is methicillin-resistant S. aureus (MRSA) (NCTC12493). It counts as cell-based, Staphylococcus aureus. The procedure: as §1
In series [8] the test system is horse erythrocytes. Put plainly: Haemolytic assay. It counts as cell-based. The note with it: 2% (v/v) horse red blood cells, 37 °C, 2 h; 1% Triton-X 100 positive control; three times in five replicates. The procedure:
The haemolytic assay was carried out to detect the cytotoxicity of each peptide to erythrocytes obtained from fresh defibrinated horse blood as described before. An appropriate volume of horse blood solution was collected via washing and transferring until the supernatant was clear. Then, 2% (v/v) suspension of red blood cells were incubated with peptide at 37 °C for 2 h. For positive and negative controls, the red blood cells were incubated with 1% (v/v) Triton-X 100 and Phosphate-buffered saline (PBS) solution, respectively. The 10% of maximal haemolysis concentration (HC10, μM) was utilised to assess the haemolytic potential. Experiments were repeated three times in five replicates.

The subject of series [9] is Candida albicans (NCYC1467). The note with it: cited from earlier work. The source says:
(§2) Although B1PLC had better activity against bacteria, its potency was slightly lower than that of B1PLB against fungi. As we know, the more positive charge of B1PLC (Table 1) could contribute to an enhanced electrostatic interaction with the negatively charged bacterial cell envelope. Therefore, to try to combine the properties of the two peptides, we designed B1A by substitution of the Asn residue at po ...

Series [10] deals with Escherichia coli (NCTC10418). The note with it: cited from earlier work.
Text: as §2

In series [11] the test system is Staphylococcus aureus (NCTC10788). The note with it: cited from earlier work.
Text: as §2

The source of these data is publication PMC7464788, “Modification and Targeted Design of N-Terminal Truncates Derived from Brevinin with Improved Therapeutic Efficacy” (Biology, 2020).

≈ marks a conversion by molar mass, not a printed value. Where “and” joins values, the source holds several entries; their conditions need not be identical. Equal values may be shown once. Positions of bridges follow the written chain, without caps; N, C: chain ends. Residues, ends and D or L forms follow the SMILES beside them. No end group written: not given here.

Take `CC[C@H](C)[C@@H]1NC(=O)[C@H](C)NC(=O)[C@@H](NC(=O)[C@H](Cc2ccccc2)NC(=O)[C@@H](NC(=O)[C@H](CCCCN)NC(=O)[C@@H]2CCCN2C(=O)[C@H](CC(C)C)NC(=O)[C@@H](N)Cc2ccccc2)[C@@H](C)CC)CSSC[C@@H](C(=O)O)NC(=O)[C@H](CCCCN)NC(=O)[C@H](CCCCN)NC(=O)[C@H]([C@@H](C)O)NC1=O` [Peptide B1A2] (H-FLPKIFCAITKKC-OH; disulfide 7-13): in [1], the MBC C. albicans stood at 512 µM (≈ 773 µg/mL) and the MIC C. albicans amounted to 512 µM (≈ 773 µg/mL). In series [2], this compound gave an MBC E. faecalis of over 512 µM and an MIC E. faecalis of over 512 µM. In [3], this compound had an MBC P. aeruginosa of over 512 µM and an MIC P. aeruginosa of over 512 µM. Further, in series [4], the MBC E. coli came to 256 µM (≈ 387 µg/mL) and the MIC E. coli was found to be 256 µM (≈ 387 µg/mL). In series [5], this compound registered an MBC K. pneumoniae of over 512 µM and an MIC K. pneumoniae of over 512 µM. The MBC S. aureus in series [6] is 256 µM (≈ 387 µg/mL). Besides, in [7], the “MBC MRSA” value is over 512 µM and the “MIC MRSA” value was determined as 256 µM (≈ 387 µg/mL). Besides, the “HC10 (concentration causing 10% red cell lysis)” value in [8] was “could not be calculated and >512 µM”.
For `CC[C@H](C)[C@@H]1NC(=O)[C@H](C)NC(=O)[C@@H](NC(=O)[C@H](Cc2ccccc2)NC(=O)[C@@H](NC(=O)[C@H](CCCCN)NC(=O)[C@@H]2CCCN2C(=O)[C@H](CC(C)C)NC(=O)[C@H](Cc2ccccc2)NC(=O)[C@H](CCCCN)NC(=O)[C@H](C)NC(=O)[C@H](C)NC(=O)[C@H](CC(C)C)NC(=O)CNC(=O)[C@H](C)NC(=O)[C@@H](NC(=O)[C@H](CC(C)C)NC(=O)[C@@H]2CCCN2C(=O)[C@H](CC(C)C)NC(=O)[C@@H](N)Cc2ccccc2)[C@@H](C)CC)[C@@H](C)CC)CSSC[C@@H](C(=O)O)NC(=O)[C@H](CCCCN)NC(=O)[C@H](CCCCN)NC(=O)[C@H]([C@@H](C)O)NC1=O` [Peptide B1A] (H-FLPLIAGLAAKFLPKIFCAITKKC-OH; disulfide 18-24), in series [1], the “MBC C. albicans” value turned out to be 8 µM (≈ 20.8 µg/mL) and the “MIC C. albicans” value turned out to be 4 µM (≈ 10.4 µg/mL). In series [2], the “MBC E. faecalis” value was 32 µM (≈ 83.4 µg/mL) and the “MIC E. faecalis” value was 8 µM (≈ 20.8 µg/mL). Also, in series [3], the “MBC P. aeruginosa” value was 64 µM (≈ 167 µg/mL) and the “MIC P. aeruginosa” value came out at 32 µM (≈ 83.4 µg/mL). In series [4], the “MBC E. coli” value turned out to be 32 µM (≈ 83.4 µg/mL) and the “MIC E. coli” value came to 8 µM (≈ 20.8 µg/mL). In series [5], this compound registered an MBC K. pneumoniae of 16 µM (≈ 41.7 µg/mL) and an MIC K. pneumoniae of 16 µM (≈ 41.7 µg/mL). In addition, the “MBC S. aureus” value in [6] is 8 µM (≈ 20.8 µg/mL). In series [7], the “MBC MRSA” value came to 32 µM (≈ 83.4 µg/mL) and the “MIC MRSA” value was found to be 16 µM (≈ 41.7 µg/mL). The “HC10 (concentration causing 10% red cell lysis)” value in series [8] is listed as 1.576 µM.
Turning to “FLPLIAGLAANFLPKIFCAITKKC (disulfide 18-24 (inferred)) [Peptide B1PLB, Brevinin-1PLb, brevinin-1 peptide from the skin secretions of Lithobates palustris (Rana palustris)]”, the “Antimicrobial activity against C. albicans” value in series [9] was “potent antimicrobial activity”. The “Antimicrobial activity against E. coli” value in [10] is on record as “potent antimicrobial activity”. Further, the “Antimicrobial activity against S. aureus” value in series [11] is recorded as “potent antimicrobial activity”.
For the compound “FLPVIAGVAAKFLPKIFCAITKKC (disulfide 18-24 (inferred)) [Peptide B1PLC, brevinin-1PLc, brevinin-1 peptide from the skin secretions of Lithobates palustris (Rana palustris)]”, the “Antimicrobial activity against C. albicans” value in [9] was “potent antimicrobial activity”. The “Antimicrobial activity against E. coli” value in series [10] is given as “potent antimicrobial activity”. Moreover, the “Antimicrobial activity against S. aureus” value in [11] is given as “potent antimicrobial activity”.
